Measured values published in PubChem BioAssay AID1918958 (Molecular Pharmacology Branch, DTP, NCI, 2023).

Test system: NCI-H196 complex spheroid viability
Experiment: Anticancer human tumor NCI-H196 cell line growth inhibition [LSD1];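 note: spheroids exposed to agents for 7 days before readout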;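 for viability, T/C: 100% = DMSO vehicle control viability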
Settings: for IC50: curve of first compound; for viability, T/C: stronger effect = lower value
Method in brief: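 Complex spheroids of tumor cells with HUVEC and human MSCs, exposed to iadademstat combined with other agents. Each agent tested in half-log steps from near clinical Cmax (else 10 microM top), DMSO ≤0.25%.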

[1] = second compound 0.1 µM, first compound 0.0316 µM
[2] = second compound 0.1 µM, first compound 0.1 µM
[3] = second compound 0.316 µM, first compound 0.0316 µM
[4] = second compound 0.316 µM, first compound 0.1 µM
[5] = second compound 1 µM, first compound 0.0316 µM
[6] = second compound 1 µM, first compound 0.1 µM
[7] = second compound 3.16 µM, first compound 0.0316 µM
[8] = second compound 3.16 µM, first compound 0.1 µM
[9] = second compound 10 µM, first compound 0.0316 µM
[10] = second compound 10 µM, first compound 0.1 µM

SMILES: CC(C)c1c(-c2ccccc2)nc2c(C#N)c[nH]n2c1=O + NC1CC1c1ccc(-c2cccc(O)c2)cc1
- IC50 (second compound 0.1 µM): > 10 µM
- IC50 (second compound 0.316 µM): > 10 µM
- IC50 (second compound 1 µM): > 10 µM
- IC50 (second compound 3.16 µM): > 10 µM
- IC50 (second compound 10 µM): > 10 µM
- viability, T/C [1]: 87.2%
- viability, T/C [2]: 96.8%
- viability, T/C (second compound 0.1 µM, first compound 0.316 µM): 88.4%
- viability, T/C (second compound 0.1 µM, first compound 1 µM): 83.5%
- viability, T/C (second compound 0.1 µM, first compound 3.16 µM): 93.1%
- viability, T/C (second compound 0.1 µM, first compound 10 µM): 90.1%
- viability, T/C [3]: 92.7%
- viability, T/C [4]: 102%
- viability, T/C (second compound 0.316 µM, first compound 0.316 µM): 98%
- viability, T/C (second compound 0.316 µM, first compound 1 µM): 89.4%
- viability, T/C (second compound 0.316 µM, first compound 3.16 µM): 94.6%
- viability, T/C (second compound 0.316 µM, first compound 10 µM): 88.2%
- viability, T/C [5]: 96.7%
- viability, T/C [6]: 95%
- viability, T/C (second compound 1 µM, first compound 0.316 µM): 91.1%
- viability, T/C (second compound 1 µM, first compound 1 µM): 96.7%
- viability, T/C (second compound 1 µM, first compound 3.16 µM): 104%
- viability, T/C (second compound 1 µM, first compound 10 µM): 79.8%
- viability, T/C [7]: 101%
- viability, T/C [8]: 88.5%
- viability, T/C (second compound 3.16 µM, first compound 0.316 µM): 95.3%
- viability, T/C (second compound 3.16 µM, first compound 1 µM): 96.2%
- viability, T/C (second compound 3.16 µM, first compound 3.16 µM): 91.6%
- viability, T/C (second compound 3.16 µM, first compound 10 µM): 94.1%
- viability, T/C [9]: 103%
- viability, T/C [10]: 92.6%
- viability, T/C (second compound 10 µM, first compound 0.316 µM): 93.1%
- viability, T/C (second compound 10 µM, first compound 1 µM): 88.4%
- viability, T/C (second compound 10 µM, first compound 3.16 µM): 86.3%
- viability, T/C (second compound 10 µM, first compound 10 µM): 88%

SMILES: CC[C@@]1(O)C(=O)OCc2c1cc1n(c2=O)Cc2cc3c(CN(C)C)c(O)ccc3nc2-1 + NC1CCC(NC2CC2c2ccccc2)CC1
- IC50 (second compound 0.1 µM): > 0.1 µM
- IC50 (second compound 0.316 µM): > 0.1 µM
- IC50 (second compound 1 µM): > 0.1 µM
- IC50 (second compound 3.16 µM): > 0.1 µM
- IC50 (second compound 10 µM): > 0.1 µM
- viability, T/C (second compound 0.1 µM, first compound 0.000316 µM): 96.8%
- viability, T/C (second compound 0.1 µM, first compound 0.001 µM): 96.4%
- viability, T/C (second compound 0.1 µM, first compound 0.00316 µM): 103%
- viability, T/C (second compound 0.1 µM, first compound 0.01 µM): 107%
- viability, T/C [1]: 115%
- viability, T/C [2]: 94.1%
- viability, T/C (second compound 0.316 µM, first compound 0.000316 µM): 96%
- viability, T/C (second compound 0.316 µM, first compound 0.001 µM): 90.2%
- viability, T/C (second compound 0.316 µM, first compound 0.00316 µM): 105%
- viability, T/C (second compound 0.316 µM, first compound 0.01 µM): 118%
- viability, T/C [3]: 110%
- viability, T/C [4]: 101%
- viability, T/C (second compound 1 µM, first compound 0.000316 µM): 89.7%
- viability, T/C (second compound 1 µM, first compound 0.001 µM): 105%
- viability, T/C (second compound 1 µM, first compound 0.00316 µM): 98.6%
- viability, T/C (second compound 1 µM, first compound 0.01 µM): 101%
- viability, T/C [5]: 98.4%
- viability, T/C [6]: 93.7%
- viability, T/C (second compound 3.16 µM, first compound 0.000316 µM): 88.7%
- viability, T/C (second compound 3.16 µM, first compound 0.001 µM): 95.3%
- viability, T/C (second compound 3.16 µM, first compound 0.00316 µM): 91%
- viability, T/C (second compound 3.16 µM, first compound 0.01 µM): 100%
- viability, T/C [7]: 111%
- viability, T/C [8]: 102%
- viability, T/C (second compound 10 µM, first compound 0.000316 µM): 94.6%
- viability, T/C (second compound 10 µM, first compound 0.001 µM): 89.7%
- viability, T/C (second compound 10 µM, first compound 0.00316 µM): 98%
- viability, T/C (second compound 10 µM, first compound 0.01 µM): 109%
- viability, T/C [9]: 105%
- viability, T/C [10]: 95.3%
